The record followed here is patent US12290521B2, “Methods and materials for identifying and treating BET inhibitor-resistant cancers” (Mayo Foundation for Medical Education and Research, priority 2018, dated 2025).

Broadly, the IC50 is the point on the concentration scale where inhibition reaches its midpoint.

What all share (assay type): cell-based, human
Assay [1] concerns SPOP and BRD2/3/4. As to the kind of experiment: Western blot, co-IP and in vivo ubiquitination assay in 293T cells. Particulars: JQ1 1 μM, 24 hours. As to the method: To immunoprecipitate the ectopically expressed FLAG-tagged proteins, transfected cells were lysed 24 hours post-transfection in BC100 buffer. The whole-cell lysates were immunoprecipitated with the monoclonal anti-FLAG antibody-conjugated M2 agarose beads (Sigma-Aldrich) at 4° C. overnight. After three washes with lysis buffer, followed by two washes with BC100 buffer, the bound proteins were eluted using FLAG-Peptide (Sigma-Aldrich) prepared in BC100 for 3 hours at 4° C. The eluted protein sample was resolved by SDS-PAGE. To immunoprecipitate the endogenous proteins, cells were lysed with 1× cell lysis buffer (Cell Signaling Technology), and the lysate was centrifuged. The supernatant was precleared with protein A/G beads (Sigma-Aldrich) and incubated with the indicated antibody and protein A/G beads at 4° C. overnight. Beads were washed five times with lysis buffer and resuspended in sample buffer and analyzed by SDS-PAGE.
Cell lysates or immunoprecipitates were subjected to SDS-PAGE, and proteins were transferred to nitrocellulose membranes (GE Healthcare Sciences). The membranes were blocked in Tris-buffered saline (TBS, pH 7.4) containing 5% non-fat milk and 0.1% Tween-20, washed twice in TBS containing 0.1% Tween-20, and incubated with primary antibody overnight at 4° C., followed by secondary antibody for 1 hour at room temperature. The proteins of interest were visualized using ECL chemiluminescence system (Santa Cruz Biotechnology). Densitometry analysis of protein bands was analyzed on the Gel-Pro Analyzer software.
For the in vivo ubiquitination assay, C4-2 cells were transfected with plasmids for HA-Ub, FLAG-BRD4, and other indicated proteins. C ells were treated with 20 μM MG132 for 8 hours before being harvested and lysed with lysis buffer (50 mM Tris-HCl, pH 7.5, 150 mM NaCl, 1% NP40, 0.5% sodium deoxycholate, 1× protease inhibitor cocktail (PIC)). The lysate was subjected to co-immunoprecipitation using anti-FLAG-conjugated agarose beads as described in the Co-IP assay.
For orientation: A western blot detects proteins with antibodies after separation by electrophoresis.

The test system of assay [2] is DU145 cells. As to the kind of experiment: Clonogenic survival (colony formation) assay. The note with it: JQ1 for 3 days, harvested at day 10. As to the method: FIGS. 26A-26I. Determination of the role of DUB3-mediated stabilization of BRD4 in BET inhibitor resistance using both loss of function and gain of function approaches. (FIG. 26A) Western blot analysis of indicated proteins in PC-3 cells infected with lentivirus expressing control or DUB3-specific shRNA for 24 hours and then co-transfected with plasmids for wild-type (WT) and mutants of HA-DUB3 for 24 hours. (FIG. 26B) Western blot analysis of indicated proteins in PC-3 cells infected with lentivirus expressing control or DUB3-specific shRNAs for 24 hours and then co-transfected with the indicated plasmids for 24 hours. Cells were treated with MG132 for 8 hours before harvested. (FIG. 26C) DU145 cells were infected with lentivirus expressing control or DUB3-specific shRNAs. After 48 hours puromycin selection, cells were treated with I-BET (5 μM), PD0332991 (5 μM) or both followed by MTS assay. All data are shown as mean values±SD (n=6). ***P<0.001, n.s., not significant. (FIG. 26D, FIG. 26E) DU145 cells were infected with lentivirus expressing indicated shRNAs and/or plasmids. After 48 hours puromycin selection, cells were treated with JQ1 (2 μM), PD0332991 (5 μM) or both followed by MTS assay (FIG. 26D) and Western blot (FIG. 26E). The quantitative data are shown as mean values±SD (n=6). ***P<0.001, n.s., not significant. (FIG. 26F, FIG. 26G) DU145 cells were infected with lentivirus expressing indicated shRNAs and/or plasmids. After 48 hours puromycin selection, cells were treated with I-BET (5 μM), PD0332991 (5 μM) or both followed by MTS assay (FIG. 26F) and Western blot (FIG. 26G). All data are shown as mean values±SD (n=6). *P<0.05, ***P<0.001, n.s., not significant. (FIG. 26H) DU145 cells were infected with lentivirus expressing control, DUB3 expressing vector and/or control or BRD4-specific shRNAs. After 48 hours puromycin selection, cells were plated for clonogenic survival assay. Cells were treated with a series of JQ1 concentrations for 3 days and harvested at day 10. Colonies with more than 50 cells were counted. IC50 is shown as a dotted line in the middle of the graph. […] OE, overexpression. KD, shRNA-mediated knockdown. (FIG. 26I) DU145 cells were infected with lentivirus as in (FIG. 26H) for 48 hours and then treated with 0.5 μM of JQ1 for 3 days and harvested at day 10. Colonies were photographed and quantified. Data represent means±SEM (n=3); P values were determined by the unpaired two-tailed Student's t-test. *P<0.05, **P<0.01.
An appropriate number of cells for different dosages of JQ1 were plated onto 6-well plate and treated with JQ1 for three days. After three-day treatment, the medium was changed with fresh medium without drugs for another 8 days. […] Colonies with more than 50 cells were counted. […]

Assay [3] concerns 22Rv1 cells. As to the kind of experiment: Cell proliferation assay (MTS) and trypan blue assay. The note with it: JQ1 0.25 μM every other day. As for the experimental part:
CellTiter 96® AQueous One Solution Cell Proliferation Assay (MTS) (Promega) was used to measure cell growth according to the manufacturer's instructions. Briefly, cells were plated in 96-well plates at a density of 2,000 cells per well. At the indicated times, 20 μL of Cell Titer 96R Aqueous One Solution Reagent was added to medium. After incubating for 1 hour at 37° C. in the cell incubator, cell growth was measured in a microplate reader at 490 nm.
Trypan blue assay was performed to measure cell growth according to the manufacturer's instructions. Briefly, cells were plated in 6-well plates at a density of about 5×10^4 to about 1×10^5 cells per well. At the indicated time points, cells were trypsinized and suspended in 1 mL 1×PBS. 100 μL cells and 100 μL trypan blue solution (Sigma-Aldrich) were mixed, and the number of viable cells was measured using the Bio-Rad automated cell counter.

Consider `Cc1sc2c(c1C)C(c1ccc(Cl)cc1)=N[C@@H](CC(=O)OC(C)(C)C)c1nnc(C)n1-2` [JQ1], for which, in assay [1], the SPOP-BRD2/3/4 protein interaction result is on record as “diminished”. The “SPOP-induced BRD2/3/4 ubiquitination and degradation” value in assay [1] is reported as “partially blocked”. Further, the half-inhibitory concentration (IC50) in assay [2] (DU145 BRD4 KD (shRNA knockdown)) was found to be 278 nM; in assay [2] (DU145 DUB3 OE (overexpression)), 576 nM; in assay [2] (DU145 DUB3 OE BRD4 KD), 297 nM; in assay [2] (DU145 EV (control)) it was 421 nM. Also, the cell growth result in assay [3] (EV-expressing 22Rv1 cells) is recorded as “inhibited growth”. The “effect on cell growth” value in assay [3] (SPOP-F133V-expressing 22Rv1 cells) is given as “largely impeded”.
